Assay results as given in PubChem BioAssay (NCI).
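1) Cells in 96-well plates. 2) Compound, 48 h, 5 concentrations. 3) Linear interpolation between surrounding doses. 4) Unreached endpoint = highest concentration. GI50 = concentration required for 50% inhibition of growth. Definition used: TGI = concentration required for complete inhibition of growth.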

Assays:
Experiment in all cases: DTP human tumour cell line panel, 48 h
[1] = test system: COLO 205 colon
[2] = test system: MCF7 breast
[3] = test system: NCI/ADR-RES ovarian
[4] = test system: MOLT-4 leukemia
[5] = test system: CAKI-1 renal
[6] = test system: SW-620 colon
[7] = test system: ACHN renal
[8] = test system: OVCAR-5 ovarian
[9] = test system: U251 CNS
[10] = test system: SK-MEL-5 melanoma
[11] = test system: NCI-H226 lung
[12] = test system: HT29 colon
[13] = test system: EKVX NSCLC
[14] = test system: PC-3 prostate
[15] = test system: HCT-116 colon
[16] = test system: NCI-H460 lung
[17] = test system: HL-60(TB) leukemia
[18] = test system: HCC-2998 colon
[19] = test system: SK-OV-3 ovarian
[20] = test system: TK-10 renal
[21] = test system: T-47D breast
[22] = test system: MALME-3M melanoma
[23] = test system: KM12 colon
[24] = test system: OVCAR-4 ovarian
[25] = test system: HCT-15 colon
[26] = test system: OVCAR-3 ovarian

Which GI50 [1] does the source give for `COC(=O)c1cc2c3ccccc3n3c(=O)c4cc5cc(OC)c(N(S(=O)(=O)c6ccc(C)cc6)S(=O)(=O)c6ccc(C)cc6)cc5nc4c(n1)c23` here?
The GI50 was greater than 100 µM.

And the TGI [1]?
The TGI was greater than 100 µM.

What about the GI50 [2] of the same compound?
Its GI50 is greater than 100 µM.

And the TGI [2]?
Its TGI is greater than 100 µM.

What about the GI50 [3] of the same compound?
Its GI50 is greater than 100 µM.

And the TGI [3]?
Its TGI is greater than 100 µM.

And the GI50 [4]?
The GI50 was 35.2 µM.

What about the TGI [4] of the same compound?
Its TGI is greater than 100 µM.

And the GI50 [5]?
Its GI50 is greater than 100 µM.

What about the TGI [5] of the same compound?
Its TGI is greater than 100 µM.

What about the GI50 [6] of the same compound?
The GI50 was greater than 100 µM.

What about the TGI [6] of the same compound?
Its TGI is greater than 100 µM.

What about the GI50 [7] of the same compound?
Its GI50 is 6.03 µM.

And the TGI [7]?
Its TGI is 22.2 µM.

And the GI50 [8]?
The GI50 was greater than 100 µM.

What about the TGI [8] of the same compound?
The TGI was greater than 100 µM.

And the GI50 [9]?
Its GI50 is 2.62 µM.

And the TGI [9]?
Its TGI is 13.4 µM.

And the GI50 [10]?
The GI50 was greater than 100 µM.

What about the TGI [10] of the same compound?
Its TGI is greater than 100 µM.

What about the GI50 [11] of the same compound?
The GI50 was 23.9 µM.

And the TGI [11]?
Its TGI is greater than 100 µM.

And the GI50 [12]?
The GI50 was greater than 100 µM.

What about the TGI [12] of the same compound?
The TGI was greater than 100 µM.

What about the GI50 [13] of the same compound?
Its GI50 is 39.2 µM.

What about the TGI [13] of the same compound?
Its TGI is greater than 100 µM.

What about the GI50 [14] of the same compound?
Its GI50 is greater than 100 µM.

And the TGI [14]?
The TGI was greater than 100 µM.

What about the GI50 [15] of the same compound?
The GI50 was 13.5 µM.

What about the TGI [15] of the same compound?
Its TGI is 59.7 µM.

And the GI50 [16]?
The GI50 was greater than 100 µM.

What about the TGI [16] of the same compound?
Its TGI is greater than 100 µM.

What about the GI50 [17] of the same compound?
The GI50 was 74.7 µM.

What about the TGI [17] of the same compound?
The TGI was greater than 100 µM.

What about the GI50 [18] of the same compound?
The GI50 was greater than 100 µM.

And the TGI [18]?
The TGI was greater than 100 µM.

What about the GI50 [19] of the same compound?
Its GI50 is 4.53 µM.

And the TGI [19]?
Its TGI is 81.3 µM.

What about the GI50 [20] of the same compound?
Its GI50 is 8.92 µM.

And the TGI [20]?
Its TGI is 23.6 µM.

And the GI50 [21]?
Its GI50 is greater than 100 µM.

What about the TGI [21] of the same compound?
Its TGI is greater than 100 µM.

What about the GI50 [22] of the same compound?
The GI50 was greater than 100 µM.

And the TGI [22]?
Its TGI is greater than 100 µM.

What about the GI50 [23] of the same compound?
The GI50 was greater than 100 µM.

And the TGI [23]?
The TGI was greater than 100 µM.

What about the GI50 [24] of the same compound?
The GI50 was greater than 100 µM.

And the TGI [24]?
The TGI was greater than 100 µM.

What about the GI50 [25] of the same compound?
The GI50 was greater than 100 µM.

And the TGI [25]?
The TGI was greater than 100 µM.

What about the GI50 [26] of the same compound?
The GI50 was greater than 100 µM.
